Structures can show the parent of a compound that is named as a salt.
Assays:
platelet aggregation [1] = experiment: Inhibition of platelet aggregation in human (ADP-induced, platelet-rich plasma); format: cell-based; conditions: human PRP, ADP final concentration 5 μM, 37° C.
Experimental: 2. Inhibition of platelet aggregation in human
Blood was collected from healthy human volunteers with an injection syringe and mixed one volume of 3.8% sodium citrate as an anticoagulant to 9 volumes of the blood. Successively, the obtained blood mixture was subjected to centrifugation at 120×g for 15 minutes at room temperature to obtain platelet-rich plasma (PRP). The residual blood after separating the PRP was further subjected to centrifugation at 1,200×g for 20 minutes to obtain platelet-poor plasma (PPP). Numbers of the platelet were measured with an automatic platelet counter: Sysmex PL-100 (manufactured by Toa Iyodensi Co.) and PRP was diluted with PPP so as to adjust a platelet concentration to be about 250,000 particles/μl. Platelet aggregation was measured by the following procedure with a 6 channel aggregometer: HEMA TRACER 1 (manufactured by NKK Co.)
(§1) After warming 240 μl of PRP at 37° C. for 2 minutes, 30 μl of the solvent of specimen as a control or the specimen having various concentrations was added to PRP. Further 2 minutes later, 30 μl of adenosine diphosphate (final concentration: 5 μM) was added to induce platelet aggregation. An inhibition percentage was obtained by comparing the maximum aggregation rate of the specimen drug group with that of control. […]

platelet aggregation [2] = experiment: Inhibition of platelet aggregation in Guinea pig (ADP-induced, platelet-rich plasma); format: cell-based, male guinea pig; conditions: Cavia porcellus, guinea pig PRP, ADP final concentration 5 μM, 37° C.
Experimental: 1. Inhibition of platelet aggregation in Guinea pig
Blood of male guinea pig was collected with an injection syringe which contains 3.8% sodium citrate as an anticoagulant in a ratio of 1 volume to 9 volumes of the blood. Successively, the collected blood mixture was subjected to centrifugation at 120×g for 15 minutes at room temperature to obtain platelet-rich plasma (PRP). The residual blood after separating PRP was further subjected to centrifugation at 1,200×g for 15 minutes to obtain platelet-poor plasma (PPP). Numbers of the platelet in PRP were measured with an automatic platelet counter: Sysmex PL-100 (manufactured by Toa Iyodensi Co.) and PRP was diluted with PPP so as to adjust a platelet concentration to be about 300,000 particles/μ 1. Platelet aggregation was measured by the following procedure with a 6 channel aggregometer: HEMA TRACER 1 (manufactured by NKK Co.).
as §1, with “control or of the specimen” for “control or the specimen”

| SMILES | IC50 (platelet aggregation [1]) | IC50 (platelet aggregation [2]) |
| --- | --- | --- |
| N=C(N)c1ccc(C(=O)Nc2ccc3c(c2)C(=O)N(CC(=O)O)CC3)cc1 [Comparative compound, 7-[(4-amidinobenzoyl)amino]-l-oxo-3,4-dihydroisoquinolone-2-acetic acid hydrochloride, reference compound] | 3.9 µM | > 100 µM |
| CCOC(=O)CC1CCc2ccc(NC(=O)c3ccc(C(=N)N)cc3)cc2C1 (stereo not shown) [Compound No. 3, ethyl 7-[(4-amidinobenzoyl)amino]-1,2,3,4-tetrahydronaphthalene-2-acetate] |  | 0.4 µM |
| CCOC(=O)CC1CCc2ccc(C(=O)Nc3ccc(C(=N)N)cc3)cc2C1 (stereo not shown) [Compound No. 11, ethyl 7-[N-(4-amidinophenyl)carbamoyl]-1,2,3,4-tetrahydronaphthalene-2-acetate] |  | 0.34 µM |
| N=C(N)c1ccc(C(=O)Nc2ccc3c(c2)CC(CC(=O)O)CO3)cc1 (stereo not shown) [Compound No. 17, 6-[(4-amidinobenzoyl)amino]chroman-3-acetic acid] | 0.049 µM |  |
| N=C(N)c1ccc(C(=O)Nc2ccc3c(c2)CN(CC(=O)O)CC3)cc1 [Compound No. 28, 7-[(4-amidinobenzoyl)amino]-1,2,3,4-tetrahydroisoquinoline-2-acetic acid] | 0.293 µM | 6.6 µM |
| CCOC(=O)CC1COc2ccc(OCc3ccc(C(=N)N)cc3)cc2C1 (stereo not shown) [Compound No. 90, ethyl 6-[(4-amidinobenzyl)oxy]chroman-3-acetate] |  | 17 µM |
| N=C(N)c1ccc(COc2ccc3c(c2)C=C(CC(=O)O)CC3)cc1 [Compound No. 91, 7-[(4-amidinobenzyl)oxy]-3,4-dihydronaphthalene-2-acetic acid] |  | 41 µM |
| N=C(N)Nc1ccc(C(=O)Nc2ccc3c(c2)CC(CC(=O)O)CC3)cc1 (stereo not shown) [Compound No. 93, 7-[(4-guanidinobenzoyl)amino]-1,2,3,4-tetrahydronaphthalene-2-acetic acid] |  | 27 µM |
| NCc1ccc(C(=O)Nc2ccc3c(c2)CC(CC(=O)O)CC3)cc1 (stereo not shown) [Compound No. 123, 7-[(4-aminomethylbenzoyl)amino]-1,2,3,4-tetrahydronaphthalene-2-acetic acid] |  | 14 µM |
| CCOC(=O)CN1CCc2ccc(C(=O)Nc3ccc(C(=N)N)cc3)cc2C1 [compound 37, ethyl 7-[N-(4-amidinophenyl)carbamoyl]-1,2,3,4-tetrahydroisoquinoline-2-acetate] |  | 4.3 µM |

The next lines start with the values.

| IC50 (platelet aggregation [1]) | IC50 (platelet aggregation [2]) | SMILES |
| --- | --- | --- |
| 0.057 µM | 0.37 µM | N=C(N)c1ccc(C(=O)Nc2ccc3c(c2)CC(CC(=O)O)CC3)cc1 (stereo not shown) [Compound No. 1, 7-[(4-amidinobenzoyl)amino]-1,2,3,4-tetrahydronaphthalene-2-acetic acid] |
| 0.046 µM | 0.23 µM | N=C(N)c1ccc(NC(=O)c2ccc3c(c2)CC(CC(=O)O)CC3)cc1 (stereo not shown) [Compound No. 9, 7-[N-(4-amidinophenyl)carbamoyl]-1,2,3,4-tetrahydronaphthalene-2-acetic acid] |
| 0.194 µM | 1.77 µM | CN(C(=O)c1ccc(C(=N)N)cc1)c1ccc2c(c1)CC(CC(=O)O)CC2 (stereo not shown) [Compound No. 47, 7-[N-(4-amidinobenzoyl)-N-methylamino]-1,2,3,4-tetrahydronaphthalene-2-acetic acid] |
| 0.115 µM | 0.34 µM | CN(C(=O)c1ccc2c(c1)CC(CC(=O)O)CC2)c1ccc(C(=N)N)cc1 (stereo not shown) [Compound No. 56, 7-[N-(4-amidinophenyl)-N-methylcarbamoyl]-1,2,3,4-tetrahydronaphthalene-2-acetic acid] |
| 1.5 µM |  | N=C(N)c1ccc(COc2ccc3c(c2)CC(CC(=O)O)CC3)cc1 (stereo not shown) [Compound No. 80, 7-[(4-amidinobenzyl)oxy]-1,2,3,4-tetrahydronaphthalene-2-acetic acid] |
|  | 22 µM | COC(=O)CC1CCc2ccc(OCc3ccc(C(=N)N)cc3)cc2C1 (stereo not shown) [Compound No. 81, methyl 7-[(4-amidinobenzyl)oxy]-1,2,3,4-tetrahydronaphthalene-2-acetate] |
|  | 39 µM | N=C(N)c1ccc(OCc2ccc3c(c2)CC(CC(=O)O)CC3)cc1 (stereo not shown) [Compound No. 82, 7-[(4-amidinophenoxy)methyl]-1,2,3,4-tetrahydronaphthalene-2-acetic acid] |
|  | 24 µM | N=C(N)c1ccc(CNc2ccc3c(c2)CC(CC(=O)O)CC3)cc1 (stereo not shown) [Compound No. 84, 7-[(4-amidinobenzyl)amino]-1,2,3,4-tetrahydronaphthalene-2-acetic acid] |
|  | 12 µM | N=C(N)c1ccc(COc2ccc3c(c2)CC(CC(=O)O)CO3)cc1 (stereo not shown) [Compound No. 89, 6-[(4-amidinobenzyl)oxy]chroman-3-acetic acid] |

— patent US5629321A, “Bicyclic compound and platelet aggregation inhibitor containing the same” (Mitsui Toatsu Chemicals, Inc., priority 1994, dated 1997)
